Test results from paper PMC7859723 (International Journal of Biological Macromolecules, 2021).

Experiments:
3CLpro [1] = conditions: read-out: IC50, inhibition of 3CLpro activity; cited from earlier work
3CLpro [2] = conditions: cited from earlier work
SARS-CoV-2 3CLpro [3] = target: T1, SARS-CoV-2 3CLpro (Severe acute respiratory syndrome coronavirus 2, UniProt P0DTD1); experiment: FRET protease assay, 3CLpro enzyme activity inhibition; format: biochemical
SARS-CoV-2 3CLpro [4] = target: T1, SARS-CoV-2 3CLpro; experiment: SPR binding assay on immobilized 3CLpro
SARS-CoV-2 3CLpro [5] = target: T1, SARS-CoV-2 3CLpro; experiment: Thermal shift assay; format: binding; conditions: compared with DMSO control
[6] = retrieved from database; ref TCMSP database; cited from earlier work
Water solubility = format: physicochemical

Structure (SMILES): O=c1c2ccccc2[se]n1-c1ccccc1 [Ebselen]
- IC50 (3CLpro [1]): 0.67 ± 0.09 µM
- EC50 (3CLpro [2]): 4.67 ± 0.8 µM

Structure (SMILES): O=c1c(O)c(-c2ccc(O)cc2)oc2cc(O)cc(O)c12 [Kaempferol, kaempferol]
- IC50 (SARS-CoV-2 3CLpro [3]): > 100 µM
- Kd (SARS-CoV-2 3CLpro [4]): 1.7 µM

Structure (SMILES): O=C(O[C@@H]1Cc2c(O)cc(O)cc2O[C@@H]1c1cc(O)c(O)c(O)c1)c1cc(O)c(O)c(O)c1 [Epigallocatechin-3-gallate, epigallocatechin-3-gallate]
- effect on thermal stability of 3CLpro (SARS-CoV-2 3CLpro [5]): altered the thermal stability of SARS-CoV-2 3CLpro in a dose-dependent manner
- OB (oral bioavailability) [6]: 55.09%

Structure (SMILES): O=C1C[C@@H](c2ccc(O)cc2)Oc2cc(O)cc(O)c21 [Naringenin, naringenin]
- IC50 (SARS-CoV-2 3CLpro [3]): > 100 µM
- Kd (SARS-CoV-2 3CLpro [4]): 2.87 µM

Structure (SMILES): COc1cc(-c2oc3cc(O)cc(O)c3c(=O)c2O)ccc1O [Isorhamnetin, isorhamnetin]
- water solubility (Water solubility): low water solubility

Structure (SMILES): O=c1cc(-c2ccc(O)c(O)c2)oc2cc(O)cc(O)c12 [Luteolin, luteolin]
- IC50 (SARS-CoV-2 3CLpro [3]): 89.7 µM
- Kd (SARS-CoV-2 3CLpro [4]): 1.63 µM
